The nature of this data set: GHS categories as the set defines them, by LD50: 1 up to 5, 2 up to 50, 3 up to 300, 4 up to 2000, 5 above 2000 mg/kg. To be noted: rat; in vivo; po.

Data on 99 compounds can be found in the CATMoS acute toxicity set (Mansouri et al. 2021).

Consider `CS/C(=N\O)C(=O)N(C)C`, for which the GHS category stood at 5.

The compound `CCN(CC)CCC(C#N)(CC=C(C)C)c1cccc2ccccc12` (centres undefined) registered a GHS category of 4.

On to `CCN(Cc1cccc(S(=O)(=O)O)c1)c1ccc(C(=C2C=CC(=[N+](CC)Cc3cccc(S(=O)(=O)O)c3)C=C2)c2ccc(O)cc2S(=O)(=O)[O-])cc1`, for which the GHS category is 5.

Compound `CC(C)(C)c1ccc(OP(Oc2ccc(C(C)(C)C)cc2C(C)(C)C)Oc2ccc(C(C)(C)C)cc2C(C)(C)C)c(C(C)(C)C)c1` registered a GHS category of 5.

Turning to `CCn1cc(C(=O)O)c(=O)c2cc(F)c(N3CCNCC3)nc21`, the GHS category came out at 5.

As for `CCCc1nc(C)n2[nH]c(=O)nc2c1Cc1ccc(-c2ccccc2-c2nn[nH]n2)cc1`, the GHS category turned out to be 4.

Compound `CC(=O)OCC(=O)C1(O)C(O)CC2C3CCC4=CC(=O)C=CC4(C)C3=CCC21C` (centres undefined) showed a GHS category of 5.

In the case of `C=C(C)C(=O)OCCc1ccccc1`, the GHS category turned out to be 5.

In the case of `CC1C2Cc3ccc(O)cc3C1(C)CCN2CCCC(=O)c1ccc(F)cc1` (centres undefined), the GHS category amounted to 4.

On to `CN1C(=O)CCc2c(OCC(O)CN3CCC(Cc4ccccc4)CC3)cccc21` (centres undefined), for which the GHS category stood at 4.

Compound `OCCOc1nn(-c2cccc(C(F)(F)F)c2)c2ncccc12` gave a GHS category of 4.

As for `CCCCCNCC(N)=O`, the GHS category stood at 5.

`COc1ccc2c(c1)CCN(c1ccccc1)C2c1ccc(OCCN2CCCCC2)cc1` (centres undefined): the GHS category was 4.

Regarding `Cc1cccc(C)c1NC(=O)C1CCCCN1C` (centres undefined), the GHS category is 5.

For the compound `CS(=O)(=O)c1ccc([C@@H](O)[C@@H](CO)NC(=O)C(Cl)Cl)cc1`, the GHS category is given as 5.

In the case of `CCC(C)C(C#N)(CCN(CC=C(C)C)CC=C(C)C)c1cccc2ccccc12` (centres undefined), the GHS category is listed as 4.

Compound `CON=CC1=CCCN(C(=O)Oc2ccc(C(C)C)cc2)C1` showed a GHS category of 4.

Compound `CC1CNCCN1SC=S` (centres undefined) returned a GHS category of 5.

The compound `C=CC1CCC(C2CCC(CCC)CC2)CC1` (centres undefined) had a GHS category of 5.

`CCC=CCCOC(=O)C(C)C` showed a GHS category of 5.

`CC1CC(C)C(C)C(C)C1` (centres undefined) came in with a GHS category of 5.

The compound `CCCCCCOC(=O)CCCCC(=O)OCCCCCC` displayed a GHS category of 5.

`CCN(CCCCCCOC(=O)c1ccc(OC)c(OC)c1)C1CCc2ccccc2C1` (centres undefined): the GHS category was 5.

As for `CC(CCO)CC(C)(C)C` (centres undefined), the GHS category came to 5.

`CC(C)(CO)CO` registered a GHS category of 5.

As for `CNc1nc(Nc2ccccc2)nc(Nc2ccc(C=Cc3ccc(Nc4nc(NC)nc(Nc5ccccc5)n4)cc3S(=O)(=O)O)c(S(=O)(=O)O)c2)n1`, the GHS category amounted to 5.

For the compound `O=C(O)COc1nn(-c2cccc(C(F)(F)F)c2)c2ncccc12`, the GHS category amounted to 4.

`CCCCCCCCOC(=O)CCc1cc(C(C)(C)C)c(O)c(C(C)(C)C)c1`: the GHS category is 5.

In turn, `CNC(C)C(O)c1ccc(NS(C)(=O)=O)cc1` (centres undefined) came in with a GHS category of 5.

Take `CCCc1c(Cc2ccc(-c3ccccc3-c3nn[nH]n3)cc2)c(N2CCCC2)nc2ncnn12`: the GHS category was 4.

`CCOC(=O)c1cnn(-c2cccc(C)c2)c1C#N` had a GHS category of 4.

Take `Cc1cc(C)c(C(=O)P(=O)(c2ccccc2)c2ccccc2)c(C)c1`: the GHS category turned out to be 5.

For the compound `O=C(O)[C@H]1O[C@@H](O)[C@@H](O)[C@@H](O)[C@@H]1O`, the GHS category is 5.

`CC(C)(O/N=C(\C(=O)N[C@@H]1C(=O)N2C(C(=O)[O-])=C(C[n+]3ccccc3)CS[C@H]12)c1csc(N)n1)C(=O)O` showed a GHS category of 5.

`Nc1nc2cc(Cl)cc(S(=O)(=O)O)c2o1` returned a GHS category of 4.

`N#Cc1c[nH]cc1-c1cccc(Cl)c1Cl` returned a GHS category of 5.

For `CC(SC(=O)c1cccs1)C(=O)NCC(=O)O` (centres undefined), the GHS category came out at 5.

`COc1cc(OC)c2oc(C3(Cn4cncn4)OCCO3)cc2c1` yielded a GHS category of 4.

For `O=C1CCCCCN1C(=O)Nc1ccc(Cc2ccc(NC(=O)N3CCCCCC3=O)cc2)cc1`, the GHS category was 5.

In the case of `C[C@@H]1O[C@@H](O[C@@H]2[C@@H](O)[C@H](OCCc3ccc(O)c(O)c3)O[C@H](CO)[C@H]2OC(=O)C=Cc2ccc(O)c(O)c2)[C@H](O)[C@H](O)[C@H]1O`, the GHS category amounted to 5.

In turn, `CCCCC/C=C\CCC(CCCCCCCC(=O)O)C(CCCCCCCC)CCCCCCCCC(=O)O` (centres undefined) returned a GHS category of 5.

As for `C=C1NC(=O)C(C)NC(=O)C(C(C)C)NC2C=Cc3c(C(C)O)cc(nc3C2O)C(=O)OC(C)C2NC(=S)c3csc(n3)C(C(C)(O)C(C)O)NC(=O)C3CSC(=N3)C(=CC)NC(=O)C(C(C)O)NC(=O)c3csc(n3)C3(CCC(c4nc(C(N)=O)cs4)NC3c3csc2n3)NC(=O)C(C)NC1=O` (centres undefined), the GHS category is on record as 5.

`COC[C@H]1CO[C@@](Cn2cncn2)(c2cc3ccccc3o2)O1` came in with a GHS category of 4.

Turning to `CCCCCCCC1CCCC1=O` (centres undefined), the GHS category was determined as 5.

For the compound `CC(OC(=O)ON1C(=O)CCC1=O)OC(=O)C(C)C` (centres undefined), the GHS category was found to be 4.

`O=C1C=CC(=O)N1c1ccc(SSc2ccc(N3C(=O)C=CC3=O)cc2)cc1`: the GHS category came out at 5.

In turn, `CC(C)=CCN(CC=C(C)C)CCC(C#N)(c1cccc2ccccc12)C(C)C` (centres undefined) gave a GHS category of 4.

`O=C(O)C1(O)c2ccccc2-c2ccc(Cl)cc21` (centres undefined) yielded a GHS category of 5.

Take `N[C@@H](Cc1cnc[nH]1)C(=O)O`: the GHS category was 5.

Regarding `CCOC(=O)CP(=O)(OCC)OCC`, the GHS category came to 5.

Regarding `COC(=O)c1ccc(C(=O)O)cc1[N+](=O)[O-]`, the GHS category was found to be 5.

Take `COc1ccc2c(c1)CCN(c1cccc(F)c1)C2c1cccc(F)c1` (centres undefined): the GHS category stood at 4.

Consider `CCCCCCCC1CCCO1` (centres undefined), for which the GHS category was found to be 5.

Compound `CCO[C@@H]1O[C@H](C(COCc2ccccc2)OCc2ccccc2)[C@H](OCc2ccccc2)[C@H]1O` (some centres undefined) gave a GHS category of 5.

Compound `O=C(O)C[C@H](NCCN[C@@H](CC(=O)O)C(=O)O)C(=O)O` showed a GHS category of 5.

`c1ccc2sc(SSc3nc4ccccc4s3)nc2c1` yielded a GHS category of 5.

In the case of `CCCCC(C)OP(=S)(OCC)OCC` (centres undefined), the GHS category is 4.

`COc1cc(/N=N/c2c(Br)cc([N+](=O)[O-])cc2[N+](=O)[O-])c(NC(C)=O)cc1N(CCOC(C)=O)CCOC(C)=O`: the GHS category is reported as 5.

In the case of `C=C[Si](C)(C)Cl`, the GHS category is 3.

`CCCc1c(Cc2ccc(-c3ccccc3C(N)=O)cc2)c(=O)nc2[nH]ncn12` registered a GHS category of 4.

In turn, `CC1(C)COC(Cn2ccnc2)(c2cc3ccccc3o2)OC1` showed a GHS category of 4.

Compound `CCOC(=O)CCN(C(=O)c1ccc2c(c1)nc(CCl)n2C)c1ccccn1` returned a GHS category of 4.

The compound `CCCCCCCCCCOCCN1CCCC1=O` displayed a GHS category of 5.

On to `O=C(O)c1ccccc1Nc1ccc(Cl)c2ccccc12`, for which the GHS category worked out at 5.

For `O=C(O)CCCCCCCCCCNS(=O)(=O)c1ccc(Cl)cc1C(=O)c1ccccc1`, the GHS category is 4.

`COc1ccc2c(c1)CCN(c1ccccc1)C2c1ccccc1[N+](=O)[O-]` (centres undefined) showed a GHS category of 4.

`CCCc1nc2ncnn2c(CCC)c1Cc1ccc(-c2ccccc2-c2nn[nH]n2)cc1` gave a GHS category of 4.

`C=C(OCC)C1C(C)(C)CC(=O)CC1(C)C` gave a GHS category of 5.

In turn, `CCOC(=O)NCC1CCN(c2nc(N)c3cc(OC)c(OC)cc3n2)CC1` had a GHS category of 4.

The compound `CC(C)=CCN(CC=C(C)C)CCC(C#N)(Cc1cccc2ccccc12)C(C)C` (centres undefined) had a GHS category of 4.

Consider `CCCC(=O)c1ccc(NC)c(O)c1`, for which the GHS category is given as 5.

On to `CO[Si](CC(C)C)(OC)OC`, for which the GHS category is listed as 5.

In turn, `CC1=NN(c2cccc(S(=O)(=O)O)c2)C(=O)C1` displayed a GHS category of 5.

In the case of `Cc1cc(C(=O)Nc2ccccc2C)n[nH]1`, the GHS category worked out at 5.

The compound `COC(=O)c1ccc(C(=O)Nc2cc(Cl)ccc2Cl)cc1N` returned a GHS category of 4.

With `Cn1c(=O)oc2ccc(Cl)cc21`, the GHS category was found to be 5.

With `Cc1nnc(SCC2=C(C(=O)O)N3C(=O)[C@@H](NC(=O)Cn4cnnn4)[C@H]3SC2)s1`, the GHS category was 5.

Turning to `COc1ccc(C(=O)Nc2ccccc2)cc1N`, the GHS category is 5.

Take `O=C1C=CC=CC1=CNc1ccccc1C(=O)O`: the GHS category came out at 4.

In turn, `O=C(O)C(O)C(O)C(O)C(O)C(O)CO` (centres undefined) gave a GHS category of 5.

`COc1ncc(F)c2nc(S(=O)(=O)Nc3c(F)cccc3F)nn12` came in with a GHS category of 5.

`N#Cc1ccc(N(c2ccc(C#N)cc2)c2ccc3c(c2)C(=O)N(Cc2cccnc2)C3=O)cc1`: the GHS category was 5.

`Clc1ccc(Cn2ccnc2-c2ccccc2)cc1` displayed a GHS category of 4.

Turning to `CCN(C(=O)CCCCSc1nnnn1C)C1CCCCC1`, the GHS category came out at 4.

On to `CCOP(=O)(CN(CCO)CCO)OCC`, for which the GHS category is 5.

Turning to `CNS(=O)(=O)Cc1ccc2[nH]cc(CCN(C)C)c2c1`, the GHS category was 5.

Consider `O=C1c2ccc(Oc3ccc(Cl)cc3)cc2C(=O)N1Cc1cccnc1`, for which the GHS category was 5.

In turn, `CCOc1ccc(C(C)(C)COCc2cccc(Oc3ccccc3)c2)cc1` came in with a GHS category of 5.

`c1ccc(Nc2ccc(NC3CCCCC3)cc2)cc1` registered a GHS category of 5.

In turn, `CC(C)OC[C@H]1CO[C@@](Cn2cncn2)(c2cc3cc(Cl)cc(Cl)c3o2)O1` showed a GHS category of 4.

`Clc1ccc(CSc2ccc(Cl)cc2)cc1` displayed a GHS category of 5.

In turn, `Cc1ccc2c([nH]c(=O)c3c(=O)cc(C(=O)OCCC(C)C)oc32)c1C` returned a GHS category of 5.

`CC1=C(C(=O)O)N2C(=O)[C@@H](NC(=O)[C@H](N)C3=CCC=CC3)[C@H]2SC1`: the GHS category stood at 5.

`CCCCCCCCCl` displayed a GHS category of 5.

In the case of `CC(C)C1OCCN1CCO` (centres undefined), the GHS category is 4.

In turn, `O=[N+]([O-])c1ccc2nc[nH]c2c1` returned a GHS category of 4.

For `Cc1c(C)c2c(c(C)c1OC(=O)CCC(=O)O)CC[C@@](C)(CCC[C@H](C)CCC[C@H](C)CCCC(C)C)O2`, the GHS category was found to be 5.

`CCCCl`: the GHS category is listed as 5.

As for `Oc1ccc(-c2ccccc2)cc1`, the GHS category is given as 5.
